Test results reported in patent US20240090503A1, “FUNGICIDAL OXADIAZOLES AND THEIR MIXTURES” (FMC CORPORATION, priority 2020, published 2024).
Marks after values point to notes of the source that are not given here.

Experiments:
Type in all cases: in vivo
[1] = tested on: Phakopsora pachyrhizi (the causal agent of Asian soybean rust); assay: Test A: preventive spray on soybean seedlings, Asian soybean rust, visual disease rating; conditions: soybean seedlings
In short: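 Compound in acetone/water (50/50) with 250 ppm PEG400 sprayed to run-off on soybean seedlings; inoculated next day with Phakopsora pachyrhizi spores. Held 24 h at 22° C in saturated atmosphere, then 8 days in a 22° C growth chamber before visual rating as % disease control relative to controls.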

[2] = tested on: Puccinia recondita f. sp. tritici (the causal agent of wheat leaf rust); assay: Test C: preventive spray on wheat seedlings, wheat leaf rust, visual disease rating; conditions: wheat seedlings
In short: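 Wheat seedlings sprayed to run-off with compound in acetone/water (50/50) with 250 ppm PEG400, then inoculated with spores the following day. After 24 h saturated humidity at 20° C. and 6 days in growth chamber at 20° C., disease rated visually as % control relative to untreated controls.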

[3] = tested on: Zymoseptoria tritici (the causal agent of wheat leaf blotch); assay: Test B: preventive spray on wheat seedlings, wheat leaf blotch, visual disease rating; conditions: wheat seedlings
Description: General protocol for preparing test suspensions for Tests A-D: the test compounds were first dissolved in acetone in an amount equal to 3% of the final volume and then suspended at the desired concentration (in ppm) in acetone and purified water (50/50 mix by volume) containing 250 ppm of the surfactant PEG400 (polyhydric alcohol esters). The resulting test suspensions were then used in Tests A-D.
The test suspension was sprayed to the point of run-off on wheat seedlings. The following day the seedlings were inoculated with a spore suspension of Zymoseptoria tritici (the causal agent of wheat leaf blotch) and incubated in a saturated atmosphere at 24° C. for 48 h, and then moved to a growth chamber at 20° C. for 17 days, after which time visual disease ratings were made.
The test results for Tests A-C presented in Table A below for compounds of Formula 1 illustrate the fungicidal activity of component (a) contributing to the plant disease control utility of compositions comprising component (a) in combination with component (b) according to the present invention. In the Table, a rating of 100 indicates 100% disease control and a rating of 0 indicates no disease control (relative to the controls). A dash (-) indicates the compound was not tested. The test suspensions were sprayed at the concentration listed in the column “Rate in ppm”, unless otherwise indicated. An asterisk “*” next to the rating indicates a 250 ppm test suspension was used, a double asterisk “**” next to the rating indicates a 100 ppm test suspension was used, and a triple asterisk “***” next to the rating indicates a 50 ppm test suspension was used.

[4] = 10 ppm test suspension, 100 = 100% disease control, 0 = no control
[5] = 250 ppm test suspension, 100 = 100% disease control
[6] = test suspension 10 ppm, 100 = 100% disease control, 0 = no control
[7] = test suspension 100 ppm (** next to rating)

Row | SMILES | Test A disease control rating ([1]; test suspension 250 ppm) [%] | Test C disease control rating ([2]; test suspension 250 ppm) [%] | Test B disease control rating ([3]; test suspension 250 ppm) | also measured
1 | O=C(NCC(F)(F)F)c1csc(Cc2ccc(-c3noc(C(F)(F)F)n3)cc2)n1 [Compound 463, N-(2,2,2-trifluoroethyl)-2-[[4-[5-(trifluoromethyl)-1,2,4-oxadiazol-3-yl]phenyl]methyl]-4-thiazolecarboxamide] | – | – | – | pest or weed control at 10 ppm ([1]; Phakopsora pachyrhizi, 216 h, 10 ppm test suspension, 100 = 100% disease control, 0 = no control): 100%; pest or weed control at 10 ppm ([2]; Puccinia recondita, 168 h, 10 ppm test suspension, 100 = 100% disease control, 0 = no control): 100%; pest or weed control at 250 ppm ([3]; Zymoseptoria tritici, 456 h, 250 ppm test suspension, 100 = 100% disease control): 65%
2 | COC(=O)c1coc(Cc2ccc(-c3noc(C(F)(F)F)n3)cc2)n1 [Compound 490] | – | – | – | Test A disease control rating [1, 4]: 100%; Test C disease control rating [2, 4]: 74%; Test B disease control rating [3, 5]: 94* %
3 | Cc1ccccc1C(O)c1ccc(-c2noc(C(F)(F)F)n2)cc1 (stereo not drawn) [Compound 497] | – | – | – | Test A disease control rating [1, 4]: 100%; Test C disease control rating [2, 4]: 0%; Test B disease control rating [3, 5]: 5* %
4 | CN(C)N=Cc1cnn(Cc2ccc(-c3noc(C(F)(F)F)n3)cc2)c1 [compound 19] | 100 | 100 | 100% | –
5 | CON=Cc1cnn(Cc2ccc(-c3noc(C(F)(F)F)n3)cc2)c1 [compound 25] | 100 | 100 | 86* % | –
6 | O=C(O)CON=Cc1cnn(Cc2ccc(-c3noc(C(F)(F)F)n3)cc2)c1 [compound 26] | 100 | 100 | 46* % | –
7 | CCOC(=O)C1=NOC(Cc2ccc(-c3noc(C(F)(F)F)n3)cc2)C1 (stereo not drawn) [compound 29] | – | – | 94* % | Test A disease control rating [1, 6]: 73%; Test C disease control rating ([2]; test suspension 10 ppm): 19%
8 | C#CCOC(=O)c1cnn(Cc2ccc(-c3noc(C(F)(F)F)n3)cc2)c1 [compound 56] | – | – | – | Test A disease control rating [1, 6]: 100%; Test C disease control rating ([2]; test suspension 10 ppm): 100%; Test B disease control rating [3, 7]: 68** %
9 | CC(C)OC(=O)c1cnn(Cc2ccc(-c3noc(C(F)(F)F)n3)cc2)c1 [compound 58] | – | – | – | Test A disease control rating [1, 6]: 100%; Test C disease control rating ([2]; test suspension 10 ppm): 100%; Test B disease control rating [3, 7]: 83** %
10 | COCCOC(=O)c1cnn(Cc2ccc(-c3noc(C(F)(F)F)n3)cc2)c1 [compound 59] | – | – | – | Test A disease control rating [1, 6]: 100%; Test C disease control rating ([2]; test suspension 10 ppm): 100%; Test B disease control rating [3, 7]: 58** %
11 | CCCOC(=O)c1cnn(Cc2ccc(-c3noc(C(F)(F)F)n3)cc2)c1 [compound 60] | – | – | – | Test A disease control rating [1, 6]: 100%; Test C disease control rating ([2]; test suspension 10 ppm): 100%; Test B disease control rating [3, 7]: 75** %
12 | CCOC(=O)c1cnn(Cc2ccc(-c3noc(C(F)(F)F)n3)s2)c1 [compound 70] | – | – | – | Test A disease control rating ([1]; test suspension 255 ppm): 100%; Test C disease control rating ([2]; test suspension 255 ppm): 100%; Test B disease control rating ([3]; test suspension 255 ppm): 96%
13 | N#Cc1nn(Cc2ccc(-c3noc(C(F)(F)F)n3)s2)cc1Br [compound 76] | – | – | – | Test A disease control rating ([1]; test suspension 270 ppm): 100%; Test C disease control rating ([2]; test suspension 270 ppm): 99%; Test B disease control rating ([3]; test suspension 270 ppm): 41%
14 | CCOC(=O)c1nn(Cc2ccc(-c3noc(C(F)(F)F)n3)cc2)nc1Br [compound 84] | 100 | 100 | 66% | –
15 | FC(F)(F)c1nc(-c2ccc(Cn3ccc4cccnc43)cc2)no1 [compound 86] | 100 | 100 | 89% | –
16 | O=C1C(=O)N(Cc2ccc(-c3noc(C(F)(F)F)n3)cc2)c2ccccc21 [compound 87] | 100 | 100 | 82% | –

Row | SMILES | Test A disease control rating ([1]; test suspension 250 ppm) [%] | Test C disease control rating ([2]; test suspension 250 ppm) [%] | Test B disease control rating ([3]; test suspension 250 ppm) | also measured
17 | N#Cc1ccc2ccn(Cc3ccc(-c4noc(C(F)(F)F)n4)cc3)c2c1 [compound 88] | 100 | 100 | 93% | –
18 | N#Cc1ccn(Cc2ccc(-c3noc(C(F)(F)F)n3)cc2)c(=O)c1 [compound 89] | 100 | 100 | 83% | –
19 | FC(F)(F)c1nc(-c2ccc(Cn3cnc4ccccc43)cc2)no1 [compound 91] | 100 | 100 | 96% | –
20 | FC(F)(F)c1nc(-c2ccc(Cn3nnc4ccccc43)cc2)no1 [compound 92] | 0 | 100 | 96% | –
21 | FC(F)(F)c1nc(-c2ccc(Cn3nc4ccccc4n3)cc2)no1 [compound 93] | 100 | 99 | 39% | –
22 | O=[N+]([O-])c1ccc2c(cnn2Cc2ccc(-c3noc(C(F)(F)F)n3)cc2)c1 [compound 94] | 100 | 78 | 35% | –
23 | FC(F)(F)c1nc(-c2ccc(CN3CCOCC3)cc2)no1 [compound 96] | 100 | 99 | 0% | –
24 | CCOC(=O)c1cn(Cc2ccc(-c3noc(C(F)(F)F)n3)cc2)nc1C(F)(F)F [compound 111] | – | – | – | Test A disease control rating ([1]; test suspension 255 ppm): 100%; Test C disease control rating ([2]; test suspension 255 ppm): 86%; Test B disease control rating ([3]; test suspension 255 ppm): 0%
25 | CCOC(=O)c1ccn(Cc2ccc(-c3noc(C(F)(F)F)n3)cc2)n1 [compound 114] | 100 | 100 | 0% | –
26 | FC(F)(F)c1nc(-c2ccc(Cn3nc(Cl)c4ccccc43)cc2)no1 [compound 116] | – | – | – | Test A disease control rating ([1]; test suspension 265 ppm): 100%; Test C disease control rating ([2]; test suspension 265 ppm): 99%; Test B disease control rating ([3]; test suspension 265 ppm): 25%
27 | CCOC(=O)c1nn(Cc2ccc(-c3noc(C(F)(F)F)n3)cc2)c2ccccc12 [compound 117] | – | – | – | Test A disease control rating ([1]; test suspension 255 ppm): 88%; Test C disease control rating ([2]; test suspension 255 ppm): 41%; Test B disease control rating ([3]; test suspension 255 ppm): 0%
28 | O=c1oc2ccccc2n1Cc1ccc(-c2noc(C(F)(F)F)n2)cc1 [compound 118] | 100 | 98 | 0% | –
29 | FC(F)(F)c1nc(-c2ccc(Cn3ncc4cc(Cl)ccc43)cc2)no1 [compound 119] | – | – | – | Test A disease control rating ([1]; test suspension 265 ppm): 100%; Test C disease control rating ([2]; test suspension 265 ppm): 100%; Test B disease control rating ([3]; test suspension 265 ppm): 54%
30 | COc1ccc2c(C#N)nn(Cc3ccc(-c4noc(C(F)(F)F)n4)cc3)c2c1 [compound 120] | – | – | – | Test A disease control rating ([1]; test suspension 260 ppm): 99%; Test C disease control rating ([2]; test suspension 260 ppm): 68%; Test B disease control rating ([3]; test suspension 260 ppm): 0%
31 | FC(F)(F)c1nc(-c2ccc(Cn3ccc(-c4ccc(Cl)cc4)n3)cc2)no1 [compound 122] | 100 | 68 | 0% | –
32 | CCOC(=O)c1c2ccccc2nn1Cc1ccc(-c2noc(C(F)(F)F)n2)cc1 [compound 123] | – | – | – | Test A disease control rating ([1]; test suspension 255 ppm): 100%; Test C disease control rating ([2]; test suspension 255 ppm): 99%; Test B disease control rating ([3]; test suspension 255 ppm): 21%
